Values of other authors in patent publication US10314914B2, “Iodophor composition and methods of use” (Veloce BioPharma, LLC, priority 2015, dated 2019).

Conditions: 50% solution of DMSO in water

rate of penetration: markedly enhanced
SMILES: C[C@]12CCC(=O)C=C1CC[C@@H]1[C@@H]2[C@@H](O)C[C@@]2(C)[C@H]1CC[C@]2(O)C(=O)CO [hydrocortisone]
